Tests used:
Assay type in all cases: cell-based
[1] = MTT assay, cell survival in RAW 264.7; details: mouse, RAW 264.7 cells, RAW 264.7 cell line, read-out: LC50
Procedure: After 24 h, the supernatant was removed, and 500 μg/ml of 3-[4,5-dimethylthiazol-2-yl]-2,5 diphenyl tetrazolium bromide (MTT) solution (Invivogen) was added. After a 3 h incubation, the supernatant was removed, and DMSO was added to dissolve the formazan dye.
One-tailed paired Student’s t-tests were performed using Microsoft Excel (Microsoft). […] The therapeutic index was calculated as […]. Animal experimental results are expressed as mean ± standard deviation and analyzed using SPSS v.20 (IBM SPSS Statistics). Homogeneity of variance was assessed using Levene’s test.
Data are from at least three independent experiments (n = 3) and statistical differences between the induced case and other cases were analyzed and verified using a one-tailed Student’s t-test (*P < 0.05, **P < 0.01, ***P < 0.001).

TLR9 = target: T1, TLR9 (Mus musculus, UniProt Q9EQU3); experiment: TLR9 inhibition, TNF-α secretion (ELISA) in RAW 264.7; details: RAW 264.7 cell line; read-out: TLR9 IC50 (mTNFα)
T1 construct: endogenous in cells; host or cells: RAW 264.7
T1 sequence (Q9EQU3 26-1032): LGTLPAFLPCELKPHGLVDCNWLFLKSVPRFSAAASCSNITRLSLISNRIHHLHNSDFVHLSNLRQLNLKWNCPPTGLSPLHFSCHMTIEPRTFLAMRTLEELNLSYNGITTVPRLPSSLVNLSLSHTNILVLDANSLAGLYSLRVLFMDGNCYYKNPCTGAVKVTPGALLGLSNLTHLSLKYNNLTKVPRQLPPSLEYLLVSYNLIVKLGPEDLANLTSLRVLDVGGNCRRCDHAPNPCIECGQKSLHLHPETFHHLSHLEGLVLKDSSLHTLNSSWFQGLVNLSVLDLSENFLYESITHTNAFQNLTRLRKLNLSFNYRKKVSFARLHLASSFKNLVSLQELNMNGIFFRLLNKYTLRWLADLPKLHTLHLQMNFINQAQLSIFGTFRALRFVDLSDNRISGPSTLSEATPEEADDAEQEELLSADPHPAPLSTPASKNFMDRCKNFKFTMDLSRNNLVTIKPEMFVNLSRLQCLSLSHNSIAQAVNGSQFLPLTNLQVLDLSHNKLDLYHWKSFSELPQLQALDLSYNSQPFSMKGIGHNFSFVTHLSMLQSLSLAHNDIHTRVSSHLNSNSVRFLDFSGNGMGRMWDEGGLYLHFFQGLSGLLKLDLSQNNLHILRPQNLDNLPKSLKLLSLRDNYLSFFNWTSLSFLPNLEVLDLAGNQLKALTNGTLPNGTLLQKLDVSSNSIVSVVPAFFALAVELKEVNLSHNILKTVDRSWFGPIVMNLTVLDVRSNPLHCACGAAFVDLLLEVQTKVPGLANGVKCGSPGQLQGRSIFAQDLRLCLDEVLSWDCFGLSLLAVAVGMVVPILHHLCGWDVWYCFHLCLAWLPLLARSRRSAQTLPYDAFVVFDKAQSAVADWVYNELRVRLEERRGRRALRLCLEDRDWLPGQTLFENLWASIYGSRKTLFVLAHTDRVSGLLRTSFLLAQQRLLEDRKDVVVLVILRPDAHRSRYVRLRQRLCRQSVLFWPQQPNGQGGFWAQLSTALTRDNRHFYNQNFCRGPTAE
Procedure: (§1) RAW 264.7 and differentiated THP-1 cells were seeded into 96-well plates at 2 × 10^4 cells per well, while Daudi cells were seeded at 5 × 10^4 cells per well. After stabilization for 30 min, cells were stimulated with specific TLR agonists for 4 or 24 h. Supernatants were diluted and transferred to precoated ELISA plates to measure TNF-α secretion using kits from Invitrogen. Optical absorbance was measured using a BioTek Synergy HTX multimode microplate reader, and data were interpolated using BioTek Gen5 software.
(§2) One-tailed paired Student’s t-tests were performed using Microsoft Excel (Microsoft). Semi-logarithmic conversions and nonregression curve analyses for calculating 50% lethal concentration (LC50) and 50% inhibitory concentration (IC50) values were conducted using GraphPad Prism 7.0 (GraphPad). The therapeutic index was calculated as […]. Animal experimental results are expressed as mean ± standard deviation and analyzed using SPSS v.20 (IBM SPSS Statistics). Homogeneity of variance was assessed using Levene’s test.
(§3) The cells were activated with agonistic ligands: […], TLR3 (poly I:C, 2 μg/ml, 24 h), TLR4 (LPS, 10 or 100 ng/ml, 4 h), TLR5 (FLA-ST, 500 ng/ml, 4 h), TLR7 (ORN06/LyoVec, 2 μg/ml, 24 h; and IMQ, 1 μg/ml, 4 h), TLR8 (TL8-506, 2 μg/ml, 24 h) and TLR9 (ODN2395, 1 μM, 4 h) at various concentrations in RAW 264.7 cells, human Daudi cells and THP-1 cells. Data are from at least three independent experiments (n = 3) and statistical differences between the induced case and other cases were analyzed and verified using a one-tailed Student’s t-test (*P < 0.05, **P < 0.01, ***P < 0.001).

endosomal TLRs = experiment: Endosomal TLR-mediated TNF-α production, summary over cell lines; details: dose-dependent, without inducing cytotoxic effects
Procedure: as §1
TLR activation triggers the NF-κB pathway, resulting in increased production of pro-inflammatory cytokines, such as TNF-α and IL-6.

TLR7 = target: T2, TLR7 (Mus musculus, UniProt P58681); experiment: TLR7 inhibition, TNF-α secretion (ELISA) in RAW 264.7
T2 construct: endogenous in cells; host or cells: RAW 264.7
T2 sequence (P58681 27-1050): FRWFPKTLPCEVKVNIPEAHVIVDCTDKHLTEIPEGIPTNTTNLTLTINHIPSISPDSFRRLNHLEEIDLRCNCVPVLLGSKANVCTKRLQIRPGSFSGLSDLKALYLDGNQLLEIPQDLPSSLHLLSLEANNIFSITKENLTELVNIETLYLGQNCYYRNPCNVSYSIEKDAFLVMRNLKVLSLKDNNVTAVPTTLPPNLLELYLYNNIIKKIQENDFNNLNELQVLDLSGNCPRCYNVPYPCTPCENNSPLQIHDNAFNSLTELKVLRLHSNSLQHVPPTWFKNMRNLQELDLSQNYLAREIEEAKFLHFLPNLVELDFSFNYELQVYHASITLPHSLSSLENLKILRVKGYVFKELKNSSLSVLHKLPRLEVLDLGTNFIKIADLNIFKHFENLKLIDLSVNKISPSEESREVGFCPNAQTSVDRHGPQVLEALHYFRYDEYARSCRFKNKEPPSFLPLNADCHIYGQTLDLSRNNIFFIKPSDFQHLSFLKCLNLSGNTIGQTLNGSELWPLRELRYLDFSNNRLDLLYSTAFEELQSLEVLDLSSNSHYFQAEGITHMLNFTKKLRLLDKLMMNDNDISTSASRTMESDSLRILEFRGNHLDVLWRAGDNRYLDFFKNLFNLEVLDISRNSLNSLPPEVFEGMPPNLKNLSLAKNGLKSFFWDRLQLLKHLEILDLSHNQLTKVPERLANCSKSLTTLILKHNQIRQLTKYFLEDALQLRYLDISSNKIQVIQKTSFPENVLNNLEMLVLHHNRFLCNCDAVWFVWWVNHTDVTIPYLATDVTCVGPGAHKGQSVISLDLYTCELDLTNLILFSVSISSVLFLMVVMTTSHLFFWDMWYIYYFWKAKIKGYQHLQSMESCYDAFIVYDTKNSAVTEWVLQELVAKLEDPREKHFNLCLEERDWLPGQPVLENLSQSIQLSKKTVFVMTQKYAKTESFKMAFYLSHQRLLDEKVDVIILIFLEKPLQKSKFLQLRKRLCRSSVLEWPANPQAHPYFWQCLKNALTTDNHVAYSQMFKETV
Procedure: as §1, §2, §3

In the case of Cc1c(C)n(CCCN(C)C)c2nc3c(c(N)c12)CCCCC3 [ETI15, 1-(3-(dimethylamino)propyl)-2,3-dimethyl-1,5,6,7,8,9-hexahydrocyclohepta[b]pyrrolo[3,2-e]pyridin-4-amine], the CC50 at 24 h [1] is reported as 67900 nM, the IC50 (TLR9) is reported as 360 nM and the “TNF-α production by RAW 264.7 and Daudi cells” value (endosomal TLRs) is reported as “effectively inhibited”. The IC50 (TLR7; RAW 264.7 cell line, read-out: TLR7 IC50 (mTNFα)) was 2810 nM and the “TLR7 TI value” (TLR7; therapeutic index, RAW 264.7) was 24.16.
